Source: patent US7667100B2, “Nucleic acid compositions conferring herbicide resistance” (Dow AgroSciences LLC, priority 2002, dated 2010)

System: Arabidopsis thaliana
Experiment: Auxin tolerance testing of stably transformed Arabidopsis thaliana
Type: in vivo
Conditions: 50 μL of 3.75 g ae/ha solution on one lower leaf, within five days
Source text: One of the auxin tolerance sequences, 129965 (SEQ ID NO:10), was selected for stable expression analysis using a model plant system, Arabidopsis thaliana. This required cloning of the GENEWARE® vector insert into a binary vector suitable for Agrobacterium transformation. Agrobacteriuni encoding the gene of interest as well as a selectable marker was then utilized to transform Arabidopsis plants. Transgenic plants derived from the first generation of seed (T1) were selected based on glufosinate resistance and subsequently tested for tolerance to auxin 4-amino-3,6-dichloropyridine-2-carboxylic acid.
Plant growth and maintenance. Freshly harvested Arabidopsis thaliana (Columbia ecotype) seed was allowed to dry at least 7 days at room temperature in the presence of desiccant. Dried seed was sterilized with a 0.1% Triton X-100 (Sigma Chemical Co., St. Louis, Mo.) and 70% ethanol solution (3 min) using 95% ethanol as a wash (30 sec). After sterilization, seed was suspended in a 0.1% agarose (Sigma Chemical Co., St. Louis, Mo.) solution. The suspended seed was stored at 4° C. for 2 days to complete dormancy requirements and ensure synchronous seed germination (stratification).
Sunshine Mix LP5 (Sun Gro Horticulture Inc., Bellevue, Wash.) was covered with fine vermiculite and subirrigated with Hoagland's solution (see Example 9) until wet. The soil mix was allowed to drain for 24 hours. […]

Nc1cc(Cl)nc(C(=O)O)c1Cl [4-amino-3,6-dichloropyridine-2-carboxylic acid, reference compound]
auxin symptoms in wild type plants: systemic symptoms of epinasty and leaf cupping, as well as meristem swelling and significant chlorosis
